Key:
Type in all cases: in vivo
[1] = tested on: Alopecurus myosuroides (ALOMY); assay: Pre-emergence biological efficacy, glasshouse pot test; conditions: 312 h, pre-emergence, rate 1,000 g/ha, evaluated after 13 days (100=total damage to plant; 0=no damage), read-out: Percentage damage caused to weed species, ALOMY
In short: (§1)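 One day after sowing in standard soil, pots were sprayed with compound in acetone/water (50:50) with 0.5% Tween 20, at 1000 or 250 g/ha. Plants grew at 24/16° C day/night, 14 h light, 65% humidity. Damage was scored after 13 days (0 = none, 100 = total).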

[2] = tested on: Amaranthus retoflexus (AMARE); assay: as above; conditions: Amaranthus retroflexus, 312 h; pre-emergence, rate 1,000 g/ha, evaluated after 13 days (100=total damage to plant; 0=no damage); read-out: Percentage damage caused to weed species, AMARE
In short: as §1

[3] = tested on: Echinochloa crus-galli (ECHCG); assay: as above; conditions: 312 h, pre-emergence, rate 1,000 g/ha, evaluated after 13 days (100=total damage to plant; 0=no damage), read-out: Percentage damage caused to weed species, ECHCG
In short: as §1

[4] = tested on: Ipomea hederaceae (IPOHE); assay: as above; conditions: Ipomoea hederacea, 312 h; pre-emergence, rate 1,000 g/ha, evaluated after 13 days (100=total damage to plant; 0=no damage); read-out: Percentage damage caused to weed species, IPOHE
In short: as §1

[5] = tested on: Setaria faberi (SETFA); assay: as above; conditions: 312 h, pre-emergence, rate 1,000 g/ha, evaluated after 13 days (100=total damage to plant; 0=no damage), read-out: Percentage damage caused to weed species, SETFA
In short: as §1

[6] = tested on: Solanum nigrum (SOLNI); assay: as above; conditions: 312 h, pre-emergence, rate 1,000 g/ha, evaluated after 13 days (100=total damage to plant; 0=no damage), read-out: Percentage damage caused to weed species, SOLNI
In short: as §1

[7] = tested on: Alopecurus myosuroides (ALOMY); assay: Post-emergence biological efficacy, glasshouse pot test; conditions: 312 h, Rate 1,000 g/ha, post-emergence spray, evaluated after 13 days (100=total damage to plant; 0=no damage to plant), read-out: Percentage damage caused to weed species, post-emergence, ALOMY
In short: (§2)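 Pot-grown weeds were sprayed 8 days after sowing with test compound in acetone/water (50:50) with 0.5% Tween 20 at 1000 or 250 g/ha. Glasshouse at 24/16° C day/night, 14 h light, 65% humidity. Damage scored 0-100 (100 = total damage) after 13 days.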

[8] = tested on: Amaranthus retoflexus (AMARE); assay: as above; conditions: Amaranthus retroflexus, 312 h; Rate 1,000 g/ha; post-emergence spray; evaluated after 13 days (100=total damage to plant; 0=no damage to plant); read-out: Percentage damage caused to weed species, post-emergence, AMARE
In short: as §2

[9] = tested on: Echinochloa crus-galli (ECHCG); assay: as above; conditions: 312 h, Rate 1,000 g/ha, post-emergence spray, evaluated after 13 days (100=total damage to plant; 0=no damage to plant), read-out: Percentage damage caused to weed species, post-emergence, ECHCG
In short: as §2

[10] = tested on: Ipomea hederaceae (IPOHE); assay: as above; conditions: Ipomoea hederacea, 312 h; Rate 1,000 g/ha; post-emergence spray; evaluated after 13 days (100=total damage to plant; 0=no damage to plant); read-out: Percentage damage caused to weed species, post-emergence, IPOHE
In short: as §2

[11] = tested on: Setaria faberi (SETFA); assay: as above; conditions: 312 h, Rate 1,000 g/ha, post-emergence spray, evaluated after 13 days (100=total damage to plant; 0=no damage to plant), read-out: Percentage damage caused to weed species, post-emergence, SETFA
In short: as §2

[12] = tested on: Solanum nigrum (SOLNI); assay: as above; conditions: 312 h, Rate 1,000 g/ha, post-emergence spray, evaluated after 13 days (100=total damage to plant; 0=no damage to plant), read-out: Percentage damage caused to weed species, post-emergence, SOLNI
In short: as §2

## COC(=O)c1nc(-c2ccc(OC)cc2C)nc(NCc2ccco2)c1Cl [Compound 251-48, 5-Chloro-4-(furan-2-yl-methylamino)-2-(4-methoxy-2-methyl-pheny)-6-methoxy-carbonylpyrimidine]
[1]
  pest or weed control at 1000 g/ha: 0%
[2]
  pest or weed control at 1000 g/ha: 0%
[3]
  pest or weed control at 1000 g/ha: 0%
[4]
  pest or weed control at 1000 g/ha: 0%
[5]
  pest or weed control at 1000 g/ha: 0%
[6]
  pest or weed control at 1000 g/ha: 0%
[7]
  pest or weed control at 1000 g/ha: 0%
[8]
  pest or weed control at 1000 g/ha: 0%
[9]
  pest or weed control at 1000 g/ha: 0%
[10]
  pest or weed control at 1000 g/ha: 0%
[11]
  pest or weed control at 1000 g/ha: 0%
[12]
  pest or weed control at 1000 g/ha: 20%

## COC(=O)c1nc(-c2ccc(OC)cc2OC)nc(NCc2ccco2)c1Cl [Compound 252-48, 5-Chloro-2-(2,4-dimethoxyphenyl)-4-(furan-2-yl-methyl-amino)-6-methoxy-carbonylpyrimidine]
[1]
  pest or weed control at 1000 g/ha: 0%
[2]
  pest or weed control at 1000 g/ha: 0%
[3]
  pest or weed control at 1000 g/ha: 0%
[4]
  pest or weed control at 1000 g/ha: 0%
[5]
  pest or weed control at 1000 g/ha: 20%
[6]
  pest or weed control at 1000 g/ha: 0%
[7]
  pest or weed control at 1000 g/ha: 0%
[8]
  pest or weed control at 1000 g/ha: 30%
[9]
  pest or weed control at 1000 g/ha: 0%
[10]
  pest or weed control at 1000 g/ha: 30%
[11]
  pest or weed control at 1000 g/ha: 0%
[12]
  pest or weed control at 1000 g/ha: 20%

## COC(=O)c1nc(-c2ccc(OC)c(Cl)c2)nc(NCc2ccco2)c1Cl [Compound 254-48, 5-Chloro-2-(3-chloro-4-methoxyphenyl)-4-(furan-2-yl-methyl-amino)-6-methoxy-carbonylpyrimidine]
[1]
  pest or weed control at 1000 g/ha: 0%
[2]
  pest or weed control at 1000 g/ha: 0%
[3]
  pest or weed control at 1000 g/ha: 0%
[4]
  pest or weed control at 1000 g/ha: 0%
[5]
  pest or weed control at 1000 g/ha: 0%
[6]
  pest or weed control at 1000 g/ha: 0%
[7]
  pest or weed control at 1000 g/ha: 0%
[8]
  pest or weed control at 1000 g/ha: 20%
[9]
  pest or weed control at 1000 g/ha: 0%
[10]
  pest or weed control at 1000 g/ha: 10%
[11]
  pest or weed control at 1000 g/ha: 0%
[12]
  pest or weed control at 1000 g/ha: 30%

## COC(=O)c1nc(-c2ccc(C)c(C)c2)nc(NCc2ccco2)c1Cl [Compound 255-48, 5-Chloro-2-(3,4-dimethylphenyl)-4-(furan-2-yl-methyl-amino)-6-methoxy-carbonylpyrimidine]
[1]
  pest or weed control at 1000 g/ha: 0%
[2]
  pest or weed control at 1000 g/ha: 20%
[3]
  pest or weed control at 1000 g/ha: 0%
[4]
  pest or weed control at 1000 g/ha: 10%
[5]
  pest or weed control at 1000 g/ha: 0%
[6]
  pest or weed control at 1000 g/ha: 0%
[7]
  pest or weed control at 1000 g/ha: 0%
[8]
  pest or weed control at 1000 g/ha: 70%
[9]
  pest or weed control at 1000 g/ha: 0%
[10]
  pest or weed control at 1000 g/ha: 10%
[11]
  pest or weed control at 1000 g/ha: 0%
[12]
  pest or weed control at 1000 g/ha: 40%

## COC(=O)c1nc(-c2ccc(C)c([N+](=O)[O-])c2)nc(NCc2ccco2)c1Cl [Compound 256-48, 5-Chloro-4-(furan-2-ylmethylamino)-6-methoxycarbonyl-2-(4-methyl-3-nitrophenyl)-pyrimidine]
[1]
  pest or weed control at 1000 g/ha: 0%
[2]
  pest or weed control at 1000 g/ha: 80%
[3]
  pest or weed control at 1000 g/ha: 0%
[4]
  pest or weed control at 1000 g/ha: 0%
[5]
  pest or weed control at 1000 g/ha: 0%
[6]
  pest or weed control at 1000 g/ha: 0%
[7]
  pest or weed control at 1000 g/ha: 0%
[8]
  pest or weed control at 1000 g/ha: 30%
[9]
  pest or weed control at 1000 g/ha: 0%
[10]
  pest or weed control at 1000 g/ha: 20%
[11]
  pest or weed control at 1000 g/ha: 10%
[12]
  pest or weed control at 1000 g/ha: 50%
